For orientation: IC50 means the concentration needed to halve the response being measured.

The target in this assay is T1, recombinant human 5-LOX (Homo sapiens, UniProt P09917).
T1 sequence (P09917 1-674): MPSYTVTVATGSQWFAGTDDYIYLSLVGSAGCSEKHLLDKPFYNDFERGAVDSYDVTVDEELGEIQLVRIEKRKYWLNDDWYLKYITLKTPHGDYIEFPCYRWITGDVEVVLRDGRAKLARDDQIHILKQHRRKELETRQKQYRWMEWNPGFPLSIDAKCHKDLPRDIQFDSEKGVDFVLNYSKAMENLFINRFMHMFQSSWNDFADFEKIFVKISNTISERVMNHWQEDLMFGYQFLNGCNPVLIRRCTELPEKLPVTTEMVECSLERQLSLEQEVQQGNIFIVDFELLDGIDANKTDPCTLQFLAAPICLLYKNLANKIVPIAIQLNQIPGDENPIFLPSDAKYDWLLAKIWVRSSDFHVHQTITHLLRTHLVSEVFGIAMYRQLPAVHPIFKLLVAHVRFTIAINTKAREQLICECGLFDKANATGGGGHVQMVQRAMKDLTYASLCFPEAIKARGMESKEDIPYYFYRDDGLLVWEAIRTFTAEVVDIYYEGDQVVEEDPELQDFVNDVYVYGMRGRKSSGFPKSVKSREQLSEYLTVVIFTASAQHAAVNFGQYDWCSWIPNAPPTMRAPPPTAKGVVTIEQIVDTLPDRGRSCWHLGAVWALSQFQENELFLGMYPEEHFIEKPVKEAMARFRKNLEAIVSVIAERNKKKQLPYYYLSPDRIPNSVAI
The assay can be described thus: Fluorescence Intensity 5-LOX Enzyme Assay. The class given is biochemical. Conditions: crude lysate of recombinant human 5-LOX; highest inhibitor concentration tested typically 25 μM. From the text: Bio Data Assays for Allergic and Non Allergic Airways Diseases Fluorescence Intensity 5-LOX Enzyme Assay
The enzyme assay is based on the oxidation of the non-fluorescent compound 2′7′-dichlorodihydrofluorescein diacetate (H2DCFDA) to the fluorescent 2′,7′-dichlorofluorescein by 5-LOX in an arachidonic acid-dependent reaction. Ester cleavage of the acetate groups of the substrate H2DCFDA must occur prior to oxidation. This is achieved through use of a crude cell lysate preparation of recombinant human 5-LOX. The enzyme assay ([…]) contained 50 mM Tris (pH 7.5), 2 mM CaCl2, 2 mM EDTA, 3 μM arachidonic acid (Nu-Chek Prep; #S-1133), 10 μM ATP, 10 μM H2DCFDA (Invitrogen; #D399), inhibitor (varying concentration) and recombinant human 5-LOX enzyme (1.25 μL crude lysate per well).
Inhibitors (dissolved in DMSO) were plated into a 384-well assay plate (Corning #3654) at 1 μL followed by a 20 μL addition of a solution containing 5-LO enzyme and H2DCFDA. Enzyme and H2DCFDA were pre-incubated for 5 min to allow time for acetate group cleavage of the dye prior to addition to the assay plate. After a 10 min pre-incubation of inhibitor and enzyme/dye mix, the assay was initiated by the addition of a substrate solution containing arachidonic acid and ATP. The enzymatic reaction was run for 20 min at room temperature and terminated by the addition of 40 μL of acetonitrile. Assay plates were read in a plate reader using standard wavelengths for fluorescein. IC50s of inhibitors were calculated using a 4-parameter fit using 7 inhibitor concentrations in duplicate with 3-fold serial dilutions. Controls on each plate included no inhibitor (zero percent effect) and 25 μM C J-13610 (one hundred percent effect). The highest inhibitor concentration tested was typically 25 μM. The final DMSO concentration in the assay was 2.5%.
Turning to `Cn1nccc1C(=O)c1ccc([S+]([O-])c2cccc(C3(C(N)=O)CCOCC3)c2)cc1` (centres unmarked) [Example 66, 4-[3-({4-[(1-methyl-1H-pyrazol-5-yl)carbonyl]phenyl}sulfinyl)phenyl]tetrahydro-2H-pyran-4-carboxamide], the IC50 is at least 25 µM. For `C[C@H]1C[C@](C#N)(c2ccc(F)c(Sc3ccc(-c4ccnn4C)cc3)c2)CCO1` [Example 74, (2S,4S)-4-(4-fluoro-3-{[4-(1-methyl-1H-pyrazol-5-yl)phenyl]thio}phenyl)-2-methyltetrahydro-2H-pyran-4-carbonitrile] the value was at least 25 µM; for `C[C@@H]1C[C@](C(N)=O)(c2ccc(F)c(Sc3ccc(-c4ccnn4C)cc3)c2)CCO1` [Example 75, (2R,4S)-4-(4-fluoro-3-{[4-(1-methyl-1H-pyrazol-5-yl)phenyl]thio}phenyl)-2-methyltetrahydro-2H-pyran-4-carboxamide], 12.2 µM. In the case of `C[C@H]1C[C@](C(N)=O)(c2ccc(F)c(Sc3ccc(-c4ccnn4C)cc3)c2)CCO1` [Example 77, (2S,4S)-4-(4-fluoro-3-{[4-(1-methyl-1H-pyrazol-5-yl)phenyl]thio}phenyl)-2-methyltetrahydro-2H-pyran-4-carboxamide] it was 6.38 µM. Take `C[C@H]1C[C@](C(N)=O)(c2cccc(Sc3ccc(-c4ccnn4C)cc3)c2F)CCO1` [Example 79, (2S,4S)-4-(2-fluoro-3-{[4-(1-methyl-1H-pyrazol-5-yl)phenyl]thio}phenyl)-2-methyltetrahydro-2H-pyran-4-carboxamide]: the IC50 is 3.31 µM. In the case of `Cn1nccc1-c1ccc(Sc2cccc(C3(C(N)=O)CCOC(C)(C)C3)c2)cc1` (centres unmarked) [Example 80, 2,2-dimethyl-4-(3-{[4-(1-methyl-1H-pyrazol-5-yl)phenyl]thio}phenyl)tetrahydro-2H-pyran-4-carboxamide] it was 3.54 µM.

With `C[C@H]1C[C@](C(N)=O)(c2cccc(Sc3ccc(-c4ccnn4C)cc3)c2)CCO1` [Example 81, (2S,4S)-2-methyl-4-(3-{[4-(1-methyl-1H-pyrazol-5-yl)phenyl]thio}phenyl)tetrahydro-2H-pyran-4-carboxamide], the IC50 amounted to 7.56 µM.

In the case of `C[C@@H]1C[C@@](C#N)(c2cccc(Sc3ccc(-c4ccnn4C)cc3)c2)CCO1` [Example 83, (2R,4R)-2-methyl-4-(3-{[4-(1-methyl-1H-pyrazol-5-yl)phenyl]thio}phenyl)tetrahydro-2H-pyran-4-carbonitrile], the IC50 came out at 10.3 µM. In the case of `C[C@H]1C[C@](C#N)(c2cccc(Sc3ccc(-c4ccnn4C)cc3)c2)CCO1` [Example 84, (2S,4S)-2-methyl-4-(3-{[4-(1-methyl-1H-pyrazol-5-yl)phenyl]thio}phenyl)tetrahydro-2H-pyran-4-carbonitrile] it was 2.23 µM; in that of `Cn1nccc1C(=O)c1ccc(Sc2cccc(C3(C(N)=O)CCOCC3)c2)c(C#N)c1` [Example 85, 4-[3-({2-cyano-4-[(1-methyl-1H-pyrazol-5-yl)carbonyl]phenyl}thio)phenyl]tetrahydro-2H-pyran-4-carboxamide], 2.75 µM. For `Cn1nccc1-c1ccc([S+]([O-])c2cccc(C3(C(N)=O)CCOCC3)c2)cc1Cl` (centres unmarked) [Example 89, 4-(3-{[3-chloro-4-(1-methyl-1H-pyrazol-5-yl)phenyl]sulfinyl}phenyl)tetrahydro-2H-pyran-4-carboxamide] the value was at least 25 µM.
